Reference: ChEMBL document CHEMBL5365466, “Discovery of Triazolyl Derivatives of Cucurbitacin B Targeting IGF2BP1 against Non-Small Cell Lung Cancer” (J Med Chem, 2023)

How the values were obtained:
[1] = Antiproliferative activity against human L02 cells assessed as cell growth inhibition at 0.1 uM incubated for 72 hrs by SRB assay; assay type: toxicity, cell-based
[2] = Selectivity index, ratio of IC50 for antiproliferative activity against human L02 cells to IC50 for antiproliferative activity against human HCT-116 cells; assay type: toxicity, cell-based; conditions: L02 cells versus HCT-116 cells, read-out: Ratio IC50
[3] = tested on: HCT-116; experiment: Antiproliferative activity against human HCT-116 cells assessed as cell growth inhibition at 1 uM incubated for 72 hrs by SRB assay; assay type: functional
[4] = tested on: HCT-116; experiment: Antiproliferative activity against human HCT-116 cells assessed as cell growth inhibition incubated for 72 hrs by SRB assay; assay type: functional, cell-based; conditions: HCT-116, 72 h
[5] = Antiproliferative activity against human L02 cells assessed as cell growth inhibition incubated for 72 hrs by SRB assay; assay type: toxicity, cell-based
[6] = Antiproliferative activity against human L02 cells assessed as cell growth inhibition at 1 uM incubated for 72 hrs by SRB assay; assay type: toxicity, cell-based
[7] = tested on: HCT-116; experiment: Antiproliferative activity against human HCT-116 cells assessed as cell growth inhibition at 0.1 uM incubated for 72 hrs by SRB assay; assay type: functional

SMILES	inhibition at 72 h, 0.1 µM [1] [%]	selectivity ratio [2]	inhibition at 1 µM [3] [%]	IC50 [4] [nM]	IC50 at 72 h [5] [nM]	inhibition at 72 h, 1 µM [6] [%]	inhibition at 0.1 µM [7] [%]
COc1ccc(-n2cnn(CC(=O)O[C@H]3C[C@@H]4C(=CC[C@@H]5[C@@]4(C)C(=O)C[C@]4(C)[C@@H]([C@@](C)(O)C(=O)/C=C/C(C)(C)OC(C)=O)[C@H](O)C[C@@]54C)C(C)(C)C3=O)c2=O)cc1	31.4	0.75	83.3	44	33	70.8	64.3
CC(=O)OC(C)(C)/C=C/C(=O)[C@](C)(O)[C@H]1[C@H](OC(=O)/C=C/c2ccc(F)cc2)C[C@@]2(C)[C@@H]3CC=C4[C@@H](C[C@H](OC(=O)/C=C/c5ccc(F)cc5)C(=O)C4(C)C)[C@]3(C)C(=O)C[C@]12C	-13.1		7.98			6.72	2.07
CC(=O)OC(C)(C)/C=C/C(=O)[C@](C)(O)[C@H]1[C@H](O)C[C@@]2(C)[C@@H]3CC=C4[C@@H](C[C@H](OC(=O)c5cccs5)C(=O)C4(C)C)[C@]3(C)C(=O)C[C@]12C	4.77		95.2			75.2	3.99
COc1ccc(/C=C/C(=O)O[C@@H]2C[C@@]3(C)[C@@H]4CC=C5[C@@H](C[C@H](O)C(=O)C5(C)C)[C@]4(C)C(=O)C[C@]3(C)[C@H]2[C@@](C)(O)C(=O)/C=C/C(C)(C)OC(C)=O)cc1	-3.17		67.3			47.4	0.47
CC(=O)OC(C)(C)/C=C/C(=O)[C@](C)(O)[C@H]1[C@H](O)C[C@@]2(C)[C@@H]3CC=C4[C@@H](C[C@H](OC(=O)Cn5ncn(-c6ccc(Cl)cc6)c5=O)C(=O)C4(C)C)[C@]3(C)C(=O)C[C@]12C	61.3	0.49	84.4	63	31	70.9	69
COc1ccc(/C=C/C(=O)O[C@H]2C[C@@H]3C(=CC[C@@H]4[C@@]3(C)C(=O)C[C@]3(C)[C@@H]([C@@](C)(O)C(=O)/C=C/C(C)(C)OC(C)=O)[C@H](OC(=O)/C=C/c5ccc(OC)cc5)C[C@@]43C)C(C)(C)C2=O)cc1	-2.33		2.18			0.89	0.38
COc1ccc(/C=C/C(=O)O[C@H]2C[C@@H]3C(=CC[C@@H]4[C@@]3(C)C(=O)C[C@]3(C)[C@@H]([C@@](C)(O)C(=O)/C=C/C(C)(C)OC(C)=O)[C@H](O)C[C@@]43C)C(C)(C)C2=O)cc1	-9.08		79.4			67.3	5.28
CC(=O)OC(C)(C)/C=C/C(=O)[C@](C)(O)[C@H]1[C@H](O)C[C@@]2(C)[C@@H]3CC=C4[C@@H](C[C@H](OC(=O)c5ccco5)C(=O)C4(C)C)[C@]3(C)C(=O)C[C@]12C	20		83.5			69.2	22.1
CC(=O)OC(C)(C)/C=C/C(=O)[C@](C)(O)[C@H]1[C@H](O)C[C@@]2(C)[C@@H]3CC=C4[C@@H](C[C@H](OC(=O)/C=C/c5ccc(F)cc5)C(=O)C4(C)C)[C@]3(C)C(=O)C[C@]12C	-3.78		87.6			1.62	1.53
CC(=O)OC(C)(C)/C=C/C(=O)[C@](C)(O)[C@H]1[C@H](O)C[C@@]2(C)[C@@H]3CC=C4[C@@H](C[C@H](OC(=O)Cn5ncn(-c6ccc(C)cc6)c5=O)C(=O)C4(C)C)[C@]3(C)C(=O)C[C@]12C	36.5	0.33	82.1	121	40	68.2	72.5
COc1ccc(-n2cc(C(=O)O[C@H]3C[C@@H]4C(=CC[C@@H]5[C@@]4(C)C(=O)C[C@]4(C)[C@@H]([C@@](C)(O)C(=O)/C=C/C(C)(C)OC(C)=O)[C@H](O)C[C@@]54C)C(C)(C)C3=O)nn2)cc1	12.6		92.1			73.1	49.4
CC(=O)OC(C)(C)/C=C/C(=O)[C@](C)(O)[C@H]1[C@H](OC(=O)/C=C/c2ccccc2)C[C@@]2(C)[C@@H]3CC=C4[C@@H](C[C@H](OC(=O)/C=C/c5ccccc5)C(=O)C4(C)C)[C@]3(C)C(=O)C[C@]12C	0.97		9.26			11.7	3.56
CC(=O)OC(C)(C)/C=C/C(=O)[C@](C)(O)[C@H]1[C@H](O)C[C@@]2(C)[C@@H]3CC=C4[C@@H](C[C@H](OC(=O)c5cn(-c6ccc(Cl)cc6)nn5)C(=O)C4(C)C)[C@]3(C)C(=O)C[C@]12C	12.5		94			72.6	35.1
CC(=O)OC(C)(C)/C=C/C(=O)[C@](C)(O)[C@H]1[C@H](O)C[C@@]2(C)[C@@H]3CC=C4[C@@H](C[C@H](OC(=O)c5cn(-c6ccc(Br)cc6)nn5)C(=O)C4(C)C)[C@]3(C)C(=O)C[C@]12C	0.01		93			73.6	15.6
CC(=O)OC(C)(C)/C=C/C(=O)[C@](C)(O)[C@H]1[C@H](OC(=O)/C=C/c2ccc(F)cc2)C[C@@]2(C)[C@@H]3CC=C4[C@@H](C[C@H](O)C(=O)C4(C)C)[C@]3(C)C(=O)C[C@]12C	7.68		1.19			67	5.23
CC(=O)OC(C)(C)/C=C/C(=O)[C@](C)(O)[C@H]1[C@H](OC(=O)/C=C/c2ccc(C)cc2)C[C@@]2(C)[C@@H]3CC=C4[C@@H](C[C@H](O)C(=O)C4(C)C)[C@]3(C)C(=O)C[C@]12C	3.35		4.99			7.53	5.73
CC(=O)OC(C)(C)/C=C/C(=O)[C@](C)(O)[C@H]1[C@H](O)C[C@@]2(C)[C@@H]3CC=C4[C@@H](C[C@H](OC(=O)c5cn(-c6ccc(C)cc6)nn5)C(=O)C4(C)C)[C@]3(C)C(=O)C[C@]12C	3.68		88.1			72.4	27.9
CC(=O)OC(C)(C)/C=C/C(=O)[C@](C)(O)[C@H]1[C@H](O)C[C@@]2(C)[C@@H]3CC=C4[C@@H](C[C@H](OC(=O)c5cccnc5)C(=O)C4(C)C)[C@]3(C)C(=O)C[C@]12C	10.1		82.4			68.3	19.9
CC(=O)OC(C)(C)/C=C/C(=O)[C@](C)(O)[C@H]1[C@H](O)C[C@@]2(C)[C@@H]3CC=C4[C@@H](C[C@H](OC(=O)/C=C/c5ccc(C)cc5)C(=O)C4(C)C)[C@]3(C)C(=O)C[C@]12C	1.88		55.6			44.1	0.24
CC(=O)OC(C)(C)/C=C/C(=O)[C@](C)(O)[C@H]1[C@H](OC(=O)/C=C/c2ccccc2)C[C@@]2(C)[C@@H]3CC=C4[C@@H](C[C@H](O)C(=O)C4(C)C)[C@]3(C)C(=O)C[C@]12C	1.86		16.5			13.2	2.73
CC(=O)OC(C)(C)/C=C/C(=O)[C@](C)(O)[C@H]1[C@H](O)C[C@@]2(C)[C@@H]3CC=C4[C@@H](C[C@H](OC(=O)/C=C/c5ccccc5)C(=O)C4(C)C)[C@]3(C)C(=O)C[C@]12C	1.72		86.8			72.7	1.46
CC(=O)OC(C)(C)/C=C/C(=O)[C@](C)(O)[C@H]1[C@H](OC(=O)/C=C/c2ccc(C)cc2)C[C@@]2(C)[C@@H]3CC=C4[C@@H](C[C@H](OC(=O)/C=C/c5ccc(C)cc5)C(=O)C4(C)C)[C@]3(C)C(=O)C[C@]12C	-13.3		4.21			8.01	0.65
